The results in this text go back to paper PMC7080599 (European journal of nuclear medicine and molecular imaging, 2019).

This assay concerns the target T1, lymphokine-activated killer T-cell-originated protein kinase (TOPK) (Homo sapiens, UniProt Q96KB5).
T1 sequence (Q96KB5 1-322): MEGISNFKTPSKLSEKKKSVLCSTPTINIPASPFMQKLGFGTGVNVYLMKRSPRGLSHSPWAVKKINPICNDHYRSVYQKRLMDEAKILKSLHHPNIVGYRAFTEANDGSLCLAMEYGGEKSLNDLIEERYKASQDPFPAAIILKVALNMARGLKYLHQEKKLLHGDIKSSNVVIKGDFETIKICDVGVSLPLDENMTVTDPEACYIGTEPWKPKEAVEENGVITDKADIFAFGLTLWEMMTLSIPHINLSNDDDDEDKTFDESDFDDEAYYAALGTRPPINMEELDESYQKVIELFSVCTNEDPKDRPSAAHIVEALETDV
Nature of the assay: in vitro TOPK kinase assay. In kind it is biochemical.

What is called EC50 is the concentration needed to bring the measured effect to its halfway point. Higher therefore signals weaker potency.

The compound `Cc1cc(O)c(-c2ccc([C@@H](C)CNc3ccc([N+](=O)[O-])c4nonc34)cc2)c2c1[nH]c(=O)c1sccc12` [TOPKi-NBD, (R)-8-hydroxy-6-methyl-9-(4-(1-((7-nitrobenzo[c][1,2,5]oxadiazol-4-yl)amino)propan-2-yl)phenyl)thieno[2,3-c]quinolin-4(5H)-one] registered a concentration giving a half-maximal response (EC50) of 490 ± 170 nM.
